Assay [1] has as its target T1, human cannabinoid receptor type 1 (Homo sapiens, UniProt P21554).
T1 construct: purchased Perkin Elmer RBHCB1M; host or cells: HEK 293 EBNA cells
As to the kind of experiment: Human CB1 Radioligand Binding Assay (basis of selectivity CB2 vs. CB1). Here is the method:
(§1) This receptor binding filtration assay measures the receptor-ligand interactions of compounds by measuring ability to compete with a radiolabeled control ligand. Reactions were performed in 96 deep-well plate (Costar 3961) with a final volume of 600 ul. Compounds were added to each well either in single point (10 uM final) or dose-response. Compounds were delivered in DMSO or further diluted in incubation buffer to a final assay DMSO concentration of 1%. Incubation buffer (50 mM Tris-HCl pH 7.4, 2.5 mM EGTA, 5 mM MgCl2, 5.0 mg/ml fatty acid free BSA) was added to each well. Following buffer addition, [^3H] CP-55,940 was added. Tritiated CP-55,940 (Perkin Elmer) was used at the Kd determined from prior saturation binding experiments conducted on each lot of membranes. Membrane preparations from stably transfected CHO CB2 cells were added and the reaction was incubated for 90 minutes at 30° C. Unifilter GF/C filtration plates (Perkin Elmer) were pre-wet with 0.05% polyethylenimine. Samples were transferred to Unifilter plates and separation of unbound radioligand was achieved using a vacuum manifold (Millipore). Following thorough washing with 5 ml/well ice-cold wash buffer (50 mM Tris-HCl pH 7.4, 2.5 mM EGTA, 5 mM MgCl2, 0.5 mg/ml fatty acid free BSA), filterplates were dried completely. Betaplate Scint Scintillation cocktail (25 ul, Perkin Elmer) was applied and plates were read using Microbeta Trilux (Wallac). Data analysis was performed in Spotfire. Activity of the positive control (100 nM CP-55,940) was set as 100% efficacy.
The CB1 binding assay was performed as described above except that HEK 293 EBNA cells expressing human cannabinoid receptor type 1 (Perkin Elmer cat #RBHCB1M) were used according the manufacturer's instructions. The incubation buffer was composed of 50 mM Tris-HCl pH 7.4, 2.5 mM EDTA, 5 mM MgCl2, 5.0 mg/ml fatty acid free BSA and the wash buffer was composed of 50 mM Tris-HCl pH 7.4, 2.5 mM EDTA, 5 mM MgCl2, 0.5 mg/ml fatty acid free BSA. Activity of the positive control (100 nM CP-55,940) was set as 100% efficacy.

For assay [2], the target named is T2, Human CB2 (Homo sapiens, UniProt P34972).
T2 construct: expressed in transfected cells; membrane preparation
T2 sequence (P34972 whole entry): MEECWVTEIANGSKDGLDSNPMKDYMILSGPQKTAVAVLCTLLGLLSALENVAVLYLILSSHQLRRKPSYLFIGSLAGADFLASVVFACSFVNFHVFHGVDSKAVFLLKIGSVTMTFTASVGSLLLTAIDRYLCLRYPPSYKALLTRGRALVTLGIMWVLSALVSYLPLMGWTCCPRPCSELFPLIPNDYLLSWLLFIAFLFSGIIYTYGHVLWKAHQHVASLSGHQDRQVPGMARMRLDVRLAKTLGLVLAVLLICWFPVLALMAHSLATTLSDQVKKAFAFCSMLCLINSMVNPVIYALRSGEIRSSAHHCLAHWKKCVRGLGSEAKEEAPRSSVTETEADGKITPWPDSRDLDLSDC
Kind of assay: Human CB2 Radioligand Binding Assay. As to conditions: membranes from stably transfected CHO CB2 cells; competition with [3H] CP-55,940; read-out: CB2 Ligand Binding Asssay. Here is the method:
as §1
Stable recombinant Human CB2-CHO cell membranes were prepared as follows: Chinese Hamster Ovarian (CHO) cells stably expressing human cannabinoid receptor type 2 were grown to ˜90% confluence in 15×100 mm culture dishes under puromycin selection (5 ug/ml) Cells were harvested from culture flasks using a cell scraper, were washed once with cold phosphate-buffered saline (calcium and magnesium free) and pelleted by centrifugation at 400 g for 5 min at 4° C. Cell pellet was washed once with cold phosphate-buffered saline and centrifuged again at 400×g for 5 min at 4° C. The pellet was suspended in ice-cold lysis buffer (10 mM Tris-HCl, 0.1 mM EDTA, containing […], pH 7.5) and homogenized in a chilled 7 ml glass dounce homogenizer using 50 strokes. The homogenate was centrifuged at 400 g for 15 min at 4° C. The cloudy supernatant was collected and centrifuged at 41000 g for 30 min at 4° C. The resulting pellet was washed with ice-cold sucrose-free lysis buffer and centrifuged again at 41000 g for 30 min at 4° C. The membrane pellet was suspended in sucrose-free storage buffer (10 mm Tris-HCl, 0.1 mM EDTA, pH 7.5) to a concentration of 2-3 mg protein/ml. Aliquots were flash frozen in liquid nitrogen and stored at −80° C. Concentration was determined using Dc protein assay kit (Bio-Rad).

T1 sequence (P21554 whole entry): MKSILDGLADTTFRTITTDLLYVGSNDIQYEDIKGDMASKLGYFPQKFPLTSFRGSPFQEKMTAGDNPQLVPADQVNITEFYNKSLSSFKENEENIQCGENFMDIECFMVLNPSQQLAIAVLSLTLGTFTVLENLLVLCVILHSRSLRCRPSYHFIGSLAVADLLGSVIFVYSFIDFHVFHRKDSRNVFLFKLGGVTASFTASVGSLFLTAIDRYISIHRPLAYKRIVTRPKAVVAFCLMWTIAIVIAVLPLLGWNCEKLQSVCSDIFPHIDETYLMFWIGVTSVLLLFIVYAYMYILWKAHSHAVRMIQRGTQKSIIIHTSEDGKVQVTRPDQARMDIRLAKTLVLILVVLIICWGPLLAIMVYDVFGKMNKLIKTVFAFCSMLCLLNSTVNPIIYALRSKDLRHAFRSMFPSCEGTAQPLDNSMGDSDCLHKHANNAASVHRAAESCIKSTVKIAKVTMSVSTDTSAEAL

Turning to `O=C(Nc1ccc(F)c(F)c1)[C@H]1CCCn2cccc2[C@@H]1c1ccccc1` (relative stereo) [Example 107, (8,9-trans)-N-(3,4-Difluorophenyl)-9-phenyl-6,7,8,9-tetrahydro-5H-pyrrolo[1,2-a]azepine-8-carboxamide], the “Selectivity, CB2 vs. CB1” value in assay [1] is “− (− indicates < 10-fold)”. The IC50 (radioligand displacement) in assay [2] is > 1 µM.
The like results for `O=C(Nc1ccc(Cl)cc1)[C@H]1CCCn2cccc2[C@@H]1c1ccccc1` (relative stereo) [Example 109, (8,9-trans)-N-(4-Chlorophenyl)-9-phenyl-6,7,8,9-tetrahydro-5H-pyrrolo[1,2-a]azepine-8-carboxamide] were, in that order, “− (− indicates < 10-fold)” and > 1 µM.
The like results for `O=C(Nc1ccc(Cl)cc1)[C@H]1CCCn2cccc2[C@H]1c1ccccc1` (relative stereo) [Example 110, (8,9-cis)-N-(4-Chlorophenyl)-9-phenyl-6,7,8,9-tetrahydro-5H-pyrrolo[1,2-a]azepine-8-carboxamide] were, in that order, “− (− indicates < 10-fold)” and < 1 µM.
On the same counts, the results for `O=C(Nc1ccc(C(F)(F)F)cc1)[C@H]1CCCn2cccc2[C@@H]1c1ccccc1` (relative stereo) [Example 111, (8,9-trans)-9-Phenyl-N-(4-(trifluoromethyl)phenyl)-6,7,8,9-tetrahydro-5H-pyrrolo[1,2-a]azepine-8-carboxamide] are “− (− indicates < 10-fold)” and > 1 µM.
With `O=C(Nc1ccc(OC(F)(F)F)cc1)[C@H]1CCCn2cccc2[C@H]1c1ccccc1` (relative stereo) [Example 114, (8,9-cis)-9-Phenyl-N-(4-(trifluoromethoxy)phenyl)-6,7,8,9-tetrahydro-5H-pyrrolo[1,2-a]azepine-8-carboxamide], in assay [1], the “Selectivity, CB2 vs. CB1” value is “− (− indicates < 10-fold)”. The IC50 (radioligand displacement) in assay [2] was < 1 µM.
On to `O=C(Nc1ccc(F)cc1F)C1CCCn2cccc2C1c1ccccc1` (single isomer, unassigned) [Example 106, (8,9-cis)-N-(2,4-Difluorophenyl)-9-phenyl-6,7,8,9-tetrahydro-5H-pyrrolo[1,2-a]azepine-8-carboxamide], for which, in assay [1], the “Selectivity, CB2 vs. CB1” value is recorded as “+ (+ indicates > 10-fold)”. Further, the IC50 (radioligand displacement) in assay [2] was < 1 µM.
For the molecule `O=C(Nc1ccc(F)c(F)c1)C1CCCn2cccc2C1c1ccccc1` (single isomer, unassigned) [Example 108, (8,9-cis)-N-(3,4-Difluorophenyl)-9-phenyl-6,7,8,9-tetrahydro-5H-pyrrolo[1,2-a]azepine-8-carboxamide], in assay [1], the “Selectivity, CB2 vs. CB1” value is given as “− (− indicates < 10-fold)”. Also, the IC50 (radioligand displacement) in assay [2] was > 1 µM.
The like results for `O=C(Nc1ccc(OC(F)(F)F)cc1)C1CCCn2cccc2C1c1ccccc1` (single isomer, unassigned) [Example 113, (8,9-trans)-9-Phenyl-N-(4-(trifluoromethoxy)phenyl)-6,7,8,9-tetrahydro-5H-pyrrolo[1,2-a]azepine-8-carboxamide] were, in that order, “− (− indicates < 10-fold)” and > 1 µM.
The like results for `CC(C)(C)c1ccc(C2c3cccn3CCCC2NC(=O)Nc2ccc(Cl)cc2Cl)cc1` (single isomer, unassigned) [Example 118, 1-(9-(4-tert-Butylphenyl)-6,7,8,9-tetrahydro-5H-pyrrolo[1,2-a]azepin-8-yl)-3-(2,4-dichlorophenyl)urea] were, in that order, “− (− indicates < 10-fold)” and < 1 µM.
On the same counts, the results for `CC(C)(C)c1ccc(C2c3cccn3CCCC2NC(=O)Nc2ccc(Cl)cc2Cl)cc1` (single isomer, unassigned) [Example 119, 1-(9-(4-tert-Butylphenyl)-6,7,8,9-tetrahydro-5H-pyrrolo[1,2-a]azepin-8-yl)-3-(2,4-dichlorophenyl)urea] are “− (− indicates < 10-fold)” and > 1 µM.
In the case of `CC(C)(C)c1ccc(C2c3cccn3CCCC2NC(=O)Nc2ccc(Cl)c(Cl)c2)cc1` (single isomer, unassigned) [Example 120, 1-(9-(4-tert-Butylphenyl)-6,7,8,9-tetrahydro-5H-pyrrolo[1,2-a]azepin-8-yl)-3-(3,4-dichlorophenyl)urea], in assay [1], the “Selectivity, CB2 vs. CB1” value was “− (− indicates < 10-fold)”. Besides, the IC50 (radioligand displacement) in assay [2] was > 1 µM.
The like results for `CC(C)(C)c1ccc(C2c3cccn3CCCC2NC(=O)Nc2ccc(Cl)c(Cl)c2)cc1` (single isomer, unassigned) [Example 121, 1-(9-(4-tert-Butylphenyl)-6,7,8,9-tetrahydro-5H-pyrrolo[1,2-a]azepin-8-yl)-3-(3,4-dichlorophenyl)urea] were, in that order, “− (− indicates < 10-fold)” and > 1 µM.
On the same counts, the results for `CC(C)(C)c1ccc(C2NCCn3cccc32)cc1` (stereo not shown) [Example 1, 1-(4-tert-Butylphenyl)-1,2,3,4-tetrahydropyrrolo[1,2-a]pyrazine] are “− (− indicates < 10-fold)” and > 1 µM.
The like results for `CC(C)(C)c1ccc(C2c3cccn3CCN2C(=O)Nc2ccc(F)cc2F)cc1` (stereo not shown) [Example 2, 1-(4-tert-Butylphenyl)-N-(2,4-difluorophenyl)-3,4-dihydropyrrolo[1,2-a]pyrazine-2(1H)-carboxamide] were, in that order, “+ (+ indicates > 10-fold)” and < 1 µM.
Take `O=C(Nc1ccc(F)cc1F)N1CCn2cccc2C1c1ccccc1` (stereo not shown) [Example 5, N-(2,4-Difluorophenyl)-1-phenyl-3,4-dihydropyrrolo[1,2-a]pyrazine-2(1H)-carboxamide]: the “Selectivity, CB2 vs. CB1” value in assay [1] is reported as “+ (+ indicates > 10-fold)”. In addition, the IC50 (radioligand displacement) in assay [2] was > 1 µM.
For `CC(C)(C)c1ccc(C2c3cccn3CCCN2C(=O)Nc2ccc(F)cc2F)cc1` (stereo not shown) [Example 7, 1-(4-tert-Butylphenyl)-N-(2,4-difluorophenyl)-4,5-dihydro-1H-pyrrolo[1,2-a][1,4]diazepine-2(3H)-carboxamide], the “Selectivity, CB2 vs. CB1” value in assay [1] was “+ (+ indicates > 10-fold)”. Further, in assay [2], the IC50 (radioligand displacement) is < 1 µM.
On to `Cc1ccc(C2c3cccn3CCCN2C(=O)Nc2ccc(F)cc2F)cc1` (stereo not shown) [Example 8, N-(2,4-Difluorophenyl)-1-p-tolyl-4,5-dihydro-1H-pyrrolo[1,2-a][1,4]diazepine-2(3H)-carboxamide], for which the “Selectivity, CB2 vs. CB1” value in assay [1] was “− (− indicates < 10-fold)”. Further, the IC50 (radioligand displacement) in assay [2] was < 1 µM.
As for `Cc1cccc(C2c3cccn3CCCN2C(=O)Nc2ccc(F)cc2F)c1` (stereo not shown) [Example 10, N-(2,4-Difluorophenyl)-1-m-tolyl-4,5-dihydro-1H-pyrrolo[1,2-a][1,4]diazepine-2(3H)-carboxamide], the “Selectivity, CB2 vs. CB1” value in assay [1] is “− (− indicates < 10-fold)”. Besides, the IC50 (radioligand displacement) in assay [2] was > 1 µM.
The like results for `Cc1cccc(C2c3cccn3CCCN2C(=O)Nc2ccc(Cl)cc2Cl)c1` (stereo not shown) [Example 11, N-(2,4-Dichlorophenyl)-1-m-tolyl-4,5-dihydro-1H-pyrrolo[1,2-a][1,4]diazepine-2(3H)-carboxamide] were, in that order, “− (− indicates < 10-fold)” and > 1 µM.
On the same counts, the results for `O=C(Nc1ccc(F)cc1F)N1CCCn2cccc2C1c1ccccc1` (stereo not shown) [Example 12, N-(2,4-Difluorophenyl)-1-phenyl-4,5-dihydro-1H-pyrrolo[1,2-a][1,4]diazepine-2(3H)-carboxamide] are “− (− indicates < 10-fold)” and > 1 µM.

For the origin of these results see patent US20090062253A1, “HETEROCYCLODIAZEPINE CANNABINOID RECEPTOR MODULATORS FOR TREATMENT OF DISEASE” (KALYPSYS, INC., priority 2007, published 2009).
